# Measured values reported in PubChem BioAssay (NCI).
#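 Exposure lasted 48 hours, with cells grown in 96-well plates and compounds tested at five concentrations. GI50 is the concentration that inhibits growth by half. The concentration for full growth arrest is given as TGI.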
# Tests used:
# Test in all cases: NCI tumour cell line growth inhibition, 48 h
# SK-MEL-2 melanoma = test system: SK-MEL-2 melanoma
# LOX IMVI melanoma = test system: LOX IMVI melanoma
# 786-0 renal = test system: 786-0 renal
# K-562 leukemia = test system: K-562 leukemia
# EKVX NSCLC = test system: EKVX NSCLC
# TK-10 renal = test system: TK-10 renal
# HL-60(TB) leukemia = test system: HL-60(TB) leukemia
# IGROV1 ovarian = test system: IGROV1 ovarian
# NCI-H460 lung = test system: NCI-H460 lung
# SK-OV-3 ovarian = test system: SK-OV-3 ovarian
# HCC-2998 colon = test system: HCC-2998 colon
# M14 melanoma = test system: M14 melanoma
# SF-295 CNS = test system: SF-295 CNS
# NCI-H23 lung = test system: NCI-H23 lung
# DU-145 prostate = test system: DU-145 prostate
# HOP-62 NSCLC = test system: HOP-62 NSCLC
# SK-MEL-5 melanoma = test system: SK-MEL-5 melanoma
# CCRF-CEM leukemia = test system: CCRF-CEM leukemia
# MALME-3M melanoma = test system: MALME-3M melanoma
# NCI/ADR-RES ovarian = test system: NCI/ADR-RES ovarian
# OVCAR-5 ovarian = test system: OVCAR-5 ovarian
# HS 578T breast = test system: HS 578T breast
# UACC-62 melanoma = test system: UACC-62 melanoma
# RXF 393 renal = test system: RXF 393 renal
# OVCAR-3 ovarian = test system: OVCAR-3 ovarian
# MCF7 breast = test system: MCF7 breast
# SN12C renal = test system: SN12C renal
# SNB-75 CNS = test system: SNB-75 CNS
smiles,measurement,setting,value
C[C@H](NC(=O)CCC(F)(F)F)C(=O)N[C@@H]1C(=O)N(CCO)c2ncccc2-c2ccccc21,GI50,SK-MEL-2 melanoma,> 100 µM
same,TGI,SK-MEL-2 melanoma,> 100 µM
same,GI50,LOX IMVI melanoma,> 100 µM
same,TGI,LOX IMVI melanoma,> 100 µM
same,GI50,786-0 renal,> 100 µM
same,TGI,786-0 renal,> 100 µM
same,GI50,K-562 leukemia,> 100 µM
same,TGI,K-562 leukemia,> 100 µM
same,GI50,EKVX NSCLC,> 100 µM
same,TGI,EKVX NSCLC,> 100 µM
same,GI50,TK-10 renal,> 100 µM
same,TGI,TK-10 renal,> 100 µM
same,GI50,HL-60(TB) leukemia,> 100 µM
same,TGI,HL-60(TB) leukemia,> 100 µM
same,GI50,IGROV1 ovarian,> 100 µM
same,TGI,IGROV1 ovarian,> 100 µM
same,GI50,NCI-H460 lung,> 100 µM
same,TGI,NCI-H460 lung,> 100 µM
same,GI50,SK-OV-3 ovarian,> 100 µM
same,TGI,SK-OV-3 ovarian,> 100 µM
same,GI50,HCC-2998 colon,> 100 µM
same,TGI,HCC-2998 colon,> 100 µM
same,GI50,M14 melanoma,> 100 µM
same,TGI,M14 melanoma,> 100 µM
same,GI50,SF-295 CNS,> 100 µM
same,TGI,SF-295 CNS,> 100 µM
same,GI50,NCI-H23 lung,> 100 µM
same,TGI,NCI-H23 lung,> 100 µM
same,GI50,DU-145 prostate,> 100 µM
same,TGI,DU-145 prostate,> 100 µM
same,GI50,HOP-62 NSCLC,> 100 µM
same,TGI,HOP-62 NSCLC,> 100 µM
same,GI50,SK-MEL-5 melanoma,> 100 µM
same,TGI,SK-MEL-5 melanoma,> 100 µM
same,GI50,CCRF-CEM leukemia,> 100 µM
same,TGI,CCRF-CEM leukemia,> 100 µM
same,GI50,MALME-3M melanoma,> 100 µM
same,TGI,MALME-3M melanoma,> 100 µM
same,GI50,NCI/ADR-RES ovarian,> 100 µM
same,TGI,NCI/ADR-RES ovarian,> 100 µM
same,GI50,OVCAR-5 ovarian,> 100 µM
same,TGI,OVCAR-5 ovarian,> 100 µM
same,GI50,HS 578T breast,> 100 µM
same,TGI,HS 578T breast,> 100 µM
same,GI50,UACC-62 melanoma,> 100 µM
same,TGI,UACC-62 melanoma,> 100 µM
same,GI50,RXF 393 renal,> 100 µM
same,TGI,RXF 393 renal,> 100 µM
same,GI50,OVCAR-3 ovarian,> 100 µM
same,TGI,OVCAR-3 ovarian,> 100 µM
same,GI50,MCF7 breast,> 100 µM
same,TGI,MCF7 breast,> 100 µM
same,GI50,SN12C renal,> 100 µM
same,TGI,SN12C renal,> 100 µM
same,GI50,SNB-75 CNS,> 100 µM
same,TGI,SNB-75 CNS,> 100 µM
